From patent US20100203614A1, “FATTY ALDEHYDE REDUCTASE” (Utah State University, priority 2009, published 2010)

Assays:
[1] = tested on: MBP-FALDR enzyme (maltose binding protein-fatty aldehyde reductase fusion protein); experiment: Continuous spectrophotometric assay of fatty aldehyde reductase activity (NADPH oxidation at 340 nm), substrate comparison and kinetics; format: biochemical, Marinobacter aquaeolei VT8
Procedure: For Fatty Aldehyde Continuous Spectrophotometric Assay Development, all assays were performed in a sealed quartz cuvette with a 1 cm path length. The cuvette and solutions were first degassed with argon on a manifold to remove oxygen from the headspace and solutions. Substrates were initially disbursed into a buffer solution containing BSA at a concentration of 0.5 mg/mL by sonication for three ten second intervals using a microtip sonicator (Branson, Danbury, Conn.). The initial assay for pH optimization included a buffer of 100 mM MOPS, 100 mM MES, and 100 mM TAPS. For reduction assays, 75 μL of a 2 mg/mL NADPH stock was added to bring the initial concentration of NADPH in the cuvette to approximately 200 μM, and an approximate absorbance at 340 nm of 1.2 based on the reported extinction coefficient of 6220 M^−1 cm^−1 for NADPH. In all assays, the reaction was run for at least two minutes with the NADPH and substrate present, prior to the addition of any enzyme, to obtain a background oxidation rate of the NADPH. […] A linear fit of the data was then used to establish the rate, and the initial background rate was subtracted, to determine the rate associated with substrate reduction by the MBP-FALDR enzyme.
Having established that the MBP-FALDR would utilize NADPH as a substrate, it was possible to employ a continuous spectrophotometric assay to monitor substrate reduction rates based on the loss of absorbance at 340 nm when NADPH is oxidized to NADP^+. Using this assay, it was possible to establish the pH dependence of the reduction reaction. The rate of reaction was highest at pH 6.3, with a steep increase in activity going from 8.0 to 6.3. The rate at 6.3 was only slightly greater than at 6.5 ([…]). Several factors had to be considered in establishing the optimal pH of the assay. The first was the background oxidation of the NADPH without any MBP-FALDR enzyme present. […] The assays were run under an argon atmosphere to minimize oxidation of the NADPH by O2. A further consideration was the rapid degradation that occurs at the lowest pH values. […] So, for standard assays used here, a pH of 6.5 was selected, where the activity was minimally affected by slight variations in pH. The following discussion is useful in understanding some features and benefits of the various embodiments of the invention:
Utilizing the continuous assay to monitor MBP-FALDR activity, the dependence of rate on substrate concentration was determined for all of the commercially available substrates described above. Each assay was repeated multiple times to confirm the results from each single determination. The results obtained for cis-11-hexadecenal are shown in FIG. 2 and are representative of the results obtained for repeated determinations and for the other substrates. […] In addition, several factors could limit the observed activity. All of the substrates tested have limited solubility in aqueous solutions, and must first be suspended in solution via sonication. Even under these conditions, it is likely that the substrates exist inside micelles. The sonication process utilized here could result in the partial degradation of the substrate over time. Additionally, the suspension of the substrate in solution is only temporary, and the substrate slowly separates from aqueous solution. Due to these limitations, the measured activity is likely to be an underestimate of the actual activity. In the cell, the enzyme and substrate are likely associated with the hydrophobic membranes. […] It was also observed that the MBP-FALDR enzyme was unstable over time, even when stored at 4° C., losing as much as 50% of the activity over a period of a week. Though the purification is quite rapid, it is uncertain how much activity is lost during preparation. […]

MBP-FALDR enzyme [2] = experiment: Initial assessment of activity: overnight reaction with NADPH/NADH or NADP+, GC/GC-MS analysis; format: biochemical, Marinobacter aquaeolei VT8
Procedure: For initial assessment of the activity of the purified MBP-FALDR enzyme, 50 μg of purified MBP-FALDR protein was added to a reaction mixture containing 100 mM of Tris buffer at pH 7.9, 100 mM NaCl, 2.4 mM of either NADPH or NADH as a reductant, and decanal, oleic acid, and hexadecanol as possible substrates. The assays were run under an argon atmosphere in septa sealed vials overnight at room temperature with constant gentle mixing. The products of the reactions were then extracted from the buffer by adding an equal volume of hexane and organic layer components were analyzed by gas chromatography equipped with a flame ionization detector (Forte HT5 column (SGE Analytical Science, Austin, Tex.), 30 meter by 0.32 mm inner diameter with 0.5 μm film thickness, with argon as a carrier and a temperature ramp from 60° C. to 360° C. increasing at 10° C. per minute). Samples containing new peaks not present in a control sample were also run through a gas chromatograph equipped with a mass spectrometer (Shimadzu GC-2010 and GCMS-QP2010S) to assign the identity of the product.
Preliminary experiments were run with the MBP-FALDR enzyme to probe possible substrates by mixing either NADH or NADPH with an aldehyde (decanal), alcohol (hexadecanol) or fatty acid (oleic acid) and then looking for changes in concentration of one or more of the potential substrates by GC analysis. The assays were allowed to run overnight in a sealed vial under an atmosphere of argon to maintain the reduced forms of the nicotinamide coenzymes. […] This initial result pointed to the likelihood that the MBP-FALDR enzyme is an NADPH-dependent fatty aldehyde reductase, and further experiments were run to characterize this activity. […] The activity of medium chain alcohol dehydrogenases from a broad range of species show rates of oxidation of alcohols that are 10% of the rates of the reduction of the corresponding aldehyde, so it is possible that this rate is too low to detect.

MBP-FALDR enzyme [3] = experiment: Reversibility and cofactor test, spectrophotometric at 340 nm (NADP+, NADH, NAD+); format: biochemical, Marinobacter aquaeolei VT8; conditions: NADH with decanal, NAD+ with decanol, in place of NADPH/NADP+
Source text: When the assay was used to check for activity with NADH in place of NADPH, NADH was substituted for NADPH at the same concentration as was used for NADPH, and the assay run as described above. Reactions using either NADP^+ or NAD^+ also used the same concentration, but it followed the increase in absorbance monitored at 340 nm. Once the pH optimum was established for the enzyme, TAPS and MOPS were removed from the buffer, and only MES was used.
To test the possible reversibility of the fatty aldehyde reducatase enzyme comprising the amino acid sequence of SEQ ID NO: 2, the oxidation of a number of alcohols to the corresponding aldehyde using NADP^+ as the oxidant were tested. These tests were performed with the MBP-FALDR enzyme. In these assays, the increase in absorbance at 340 nm was followed. Under no conditions did any reduction of NADP^+ occur in the presence of the fatty alcohols tested. As a control, the alcohol dehydrogenase from Thermoanaerobium brokii was followed with 2-propanol and the same stock of NADP^+ to confirm the integrity of the assay.

MBP-FALDR fusion protein = experiment: Inhibition of decanal reduction by MBP-FALDR in the presence of NADPH; format: biochemical, Marinobacter aquaeolei VT8; conditions: at the two concentrations tested
Procedure: For Fatty Aldehyde Continuous Spectrophotometric Assay Development, all assays were performed in a sealed quartz cuvette with a 1 cm path length. The cuvette and solutions were first degassed with argon on a manifold to remove oxygen from the headspace and solutions. Substrates were initially disbursed into a buffer solution containing BSA at a concentration of 0.5 mg/mL by sonication for three ten second intervals using a microtip sonicator (Branson, Danbury, Conn.). The initial assay for pH optimization included a buffer of 100 mM MOPS, 100 mM MES, and 100 mM TAPS. For reduction assays, 75 μL of a 2 mg/mL NADPH stock was added to bring the initial concentration of NADPH in the cuvette to approximately 200 μM, and an approximate absorbance at 340 nm of 1.2 based on the reported extinction coefficient of 6220 M^−1 cm^−1 for NADPH. In all assays, the reaction was run for at least two minutes with the NADPH and substrate present, prior to the addition of any enzyme, to obtain a background oxidation rate of the NADPH.
Finally, the ability of decanol to inhibit reduction of decanal was also tested.
Referring again to Table 2, the inhibition assays were run in 100 mM MES buffer pH 6.5 with 200 μM NADPH, 250 μM decanal and 125 μg of MBP-FALDR fusion protein. All compounds were dissolved in buffer except dipyridyl, which was dissolved in dimethyl sulfoxide (DMSO).

[4] = Decanal reduction after Factor Xa removal of maltose binding protein; format: biochemical; conditions: MBP removed by Factor Xa cleavage
Procedure: Since all the assays were conducted with the MBP-FALDR fusion protein, a principle concern was whether the fusion protein accurately represented the activity of the wild-type fatty aldehyde reducatase enzyme comprising the amino acid sequence of SEQ ID NO: 2. To examine whether the maltose binding protein affected the activity of the wild-type fatty aldehyde reducatase enzyme comprising the amino acid sequence of SEQ ID NO: 2, the maltose binding protein was removed from the N-terminus of the fatty aldehyde reducatase enzyme comprising the amino acid sequence of SEQ ID NO: 2 by Factor Xa cleavage. The near complete cleavage of maltose binding protein was verified by SDS-PAGE. This cleavage is facilitated by the incorporation of a factor Xa cleavage site (Ile-Glu-Gly-Arg) just upstream of the EcoRI site of the pMAL-c2x vector.

activity (substrate reduction rate) ([1]; substrate 100 μg/mL, 160 μg enzyme)	Relative Activity (Percent of Decanal) ([1]; substrate 100 μg/mL, 160 μg enzyme, decanal = 85 nmols/min/mg = 100)	Km ([1]; substrate of MBP-FALDR, Michaelis-Menten fit, NADPH, FIG. 2 substrate is cis-11-hexadecenal)	substrate conversion by GC (MBP-FALDR enzyme [2]; with NADPH, overnight, argon, room temperature, new peak confirmed as decanol by MS)	reverse reaction: aldehyde production by GC (MBP-FALDR enzyme [2]; with NADP+)	rate of substrate reduction versus MBP-FALDR fusion protein [4]	Molecule	substrate activity in words ([1]; compared with decanal, substrate 100 μg/mL)	activity over background with NADH or NAD+ (MBP-FALDR enzyme [3])	inhibition of decanal reduction (MBP-FALDR fusion protein)
85 nmol/min/mg	100% of Decanal	~100 µM	decrease in the decanal peak			CCCCCCCCCC=O [Decanal]	highest activity of the substrates tested	no indication of activity over background	
				no detectable levels		CCCCCCCCCCO [decanol]		no indication of activity over background	~45%
					did not reveal any loss or improvement	cleaved fatty aldehyde reducatase enzyme: fatty aldehyde reductase of SEQ ID NO: 2 freed from MBP by Factor Xa cleavage (protein, Marinobacter aquaeolei VT8) MAIQQVHHADTSSSKVLGQLRGKRVLITGTTGFLGKVVLERLIRAVPDIGAIYLLIRGNKRHPDARSRFLEEIATSSVFDRLREADSEGFDAFLEERIHCVTGEVTEAGFGIGQEDYRKLATELDAVINSAASVNFREELDKALAINTLCLRNIAGMVDLNPKLAVLQVSTCYVNGMNSGQVTESVIKPAGEAVPRSPDGFYEIEELVRLLQDKIEDVQARYSGKVLERKLVDLGIREANRYGWSDTYTFTKWLGEQLLMKALNGRTLTILRPSIIESALEEPAPGWIEGVKVADAIILAYAREKVTLFPGKRSGIIDVIPVDLVANSIILSLAEALGEPGRRRIYQCCSGGGNPISLGEFIDHLMAESKANYAAYDHLFYRQPSKPFLAVNRALFDLVISGVRLPLSLTDRVLKLLGNSRDLKMLRNLDTTQSLATIFGFYTAPDYIFRNDELMALANRMGEVDKGLFPVDARLIDWELYLRKIHLAGLNRYALKERKVYSLKTARQRKKAA			
